Measurements from article PMC11999280, “Design and screening of novel endosomal escape compounds that enhance functional delivery of oligonucleotides in vitro” (Molecular Therapy. Nucleic Acids, 2025).

Legend:
[1] = system: PPIB mRNA in primary human hepatocytes; assay: PPIB siRNA knockdown, qPCR; format: cell-based; details: EEE32 at 2 μM with GalNAc-siPPIB
Procedure: Studies of siRNA knockdown therapeutics were performed in primary human hepatocytes using EEE32-mediated enhancement. We aimed to target peptidylpropyl isomerase B (PPIB) mRNA by using siRNA (siPPIB) either alone or together with the EEE32 and comparing them with GalNAc-conjugated siRNA (GalNAc-siPPIB), which is considered a potent human liver uptake enhancer.[30] […] However, the use of EEE32 at a 2-μM concentration enhanced GalNAc-siPPIB activity, improving the knockdown capacity by approximately 10-fold (Figure 5B, top). Additionally, no significant differences indicating compromised cell viability were observed when measuring systematic decreases in RNA yield from both groups (Figure 5B, bottom).
Human primary hepatocytes obtained from a commercial supplier (QNT lot, BioIVT) were cultured in rat tail collagen I-coated 96-well plates (Corning, catalog no. 354407) using William’s E Medium (A1217601,Thermo Fisher) supplemented with thawing and plating supplements (Thermo Fisher, catalog no. CM3000) (day 0). […]

[2] = system: HeLa_Luc705 cells (pLuc/705 splice-switching reporter); assay: Functional 705-SSO delivery, luciferase splice-switching assay; format: cell-based; details: for Luciferase expression compared to reference: HeLa-Luc705 + 1 µM SSO, mean from >3 independent experiments
Outline: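 Cells seeded at 10,000/well were pre-incubated 24 h with 1–2 μM 2′-O-methyl phosphorothioate 705-SSO, then exposed to endosomal escape enhancer at the stated concentrations. After 24 h, cells were lysed in 0.1% Triton X-100 and firefly luciferase luminescence was read as the splice-correction signal. LF2000 lipofection with 100–200 nM SSO served as transfection control.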

## COc1nn(C2CCNC(C)(C)C2)cc1Nc1ncc(F)c(-n2ccc3c(C#N)cccc32)n1 (stereo not shown) [EEE32]
[1]
  Improvement of GalNAc-siPPIB knockdown capacity: approximately 10 fold
[2]; EEE 0.5 µM
  Luciferase expression compared to reference: 3.743
[2]; EEE 2 µM
  Luciferase expression compared to reference: 115.294
[2]; EEE 4 µM
  Luciferase expression compared to reference: 111.401
[2]; EEE 5 µM
  Luciferase expression compared to reference: 66.337
[2]; dose response, luciferase readout at time points after EEE addition
  Splice-switching with 24-h SSO pre-incubation relative to SSO co-treatment: around 17 times
[2]; using 2–2.5 μM EEE
  Splice-switching enhancement: above 100 fold
